Measured values as given in paper PMC8272121, “Synthesis and Evaluation of Chalcone-Quinoline Based Molecular Hybrids as Potential Anti-Malarial Agents” (Molecules, 2021).
Values after ≈ are worked out from the molar mass of the structure shown.

Key:
[1] = test system: P. falciparum NF54 (drug-sensitive strain); assay: In vitro antiplasmodial assay (parasite lactate dehydrogenase), chloroquine-sensitive NF54 strain; type: cell-based, Plasmodium falciparum; settings: Plasmodium falciparum; sensitive (NF54) strain of P. falciparum; pLDH assay, 48 h; mean of ≥2 independent experiments; read-out: PfNF54 IC50
Method: All the synthesized molecular hybrids (6–27) were evaluated for in vitro antiplasmodial activity against the drug-sensitive strain (NF54) of P. falciparum and for cytotoxicity against the Chinese Hamster Ovary (CHO) mammalian cell line using emetine as a reference drug. Aqueous solubility was determined at pH 6.5 (Table 2).
In-vitro anti-plasmodium assay. Compounds were tested using parasite lactate dehydrogenase assay as a marker for parasite survival. The respective stock solutions of CQ diphosphate and test compounds were prepared by dissolving 2 mg/mL in distilled water (for CQ) and 100% DMSO for test compounds. The solutions were then stored at −20 °C, with further dilutions prepared on the day of the experiment. The cultures were synchronized in the ring stage as described previously using 15 mL of 5% (w/v) d-sorbitol in water. Synchronous cultures of PfNF54 (CQS) in the late trophozoite stage were prepared to 2% parasitemia and 2% hematocrit. […] Following incubation, 100 μL of MalStat reagent and 15 μL of resuspended culture were combined, followed by addition of 25 μL of nitro blue tetrazolium chloride (NBT). The plates were kept in the dark for about 10 min to fully develop, and absorbance was measured at 620 nm on a microplate reader. Raw data were exported to Microsoft Excel for dose-response analysis.

[2] = test system: Chinese Hamster Ovary (CHO) mammalian cell line; assay: Cytotoxicity MTT assay on CHO cells; type: cell-based; settings: for IC50: Cricetulus griseus, CHO, Chinese hamster ovarian cell line, MTT, 48 h; for SI (selectivity index): SI = IC50 (CHO)/IC50 (PfNF54)
Method: All the synthesized molecular hybrids (6–27) were evaluated for in vitro antiplasmodial activity against the drug-sensitive strain (NF54) of P. falciparum and for cytotoxicity against the Chinese Hamster Ovary (CHO) mammalian cell line using emetine as a reference drug. Aqueous solubility was determined at pH 6.5 (Table 2). Cytotoxicity assay. […] The reference standard, emetine, was prepared to 2 mg/mL in distilled water while stock solutions of test compounds were prepared to 20 mg/mL in 100% DMSO with the highest concentration of solvent to which the cells were exposed having no measurable effect on the cell viability. The initial concentration of the compounds and control was 100 μg/mL, which was serially diluted in complete medium with 10-fold dilutions to give six concentrations, the lowest being 0.001 μg/mL. Plates were incubated for 48 h with 100 μL of drug and 100 μL of cell suspension in each well and developed afterward by adding 25 μL of sterile MTT (Thermo Fisher Scientific) to each well, followed by 4 h of incubation in the dark. The plates were then centrifuged; the medium was aspirated, and 100 μL of DMSO was added to dissolve crystals before reading the absorbance at 540 nm. Data were analyzed, and the sigmoidal dose-response was derived using GraphPad Prism v 4.0 software (La Jolla). All experiments were performed for at least three independent biological repeats, each with technical triplicates.

[3] = test system: P. falciparum K1 (multi-drug resistant strain); assay: In vitro antiplasmodial activity against multi-drug resistant K1 strain; type: cell-based; settings: Plasmodium falciparum; multi-drug resistant K1 strain of P. falciparum; read-out: PfK1 IC50
[4] = Aqueous solubility, miniaturized shake flask method (HPLC-DAD); type: physicochemical; settings: aqueous solution, aqueous buffer, thermodynamic from solid, pH 6.5, shake flask 20 h, 25 °C
Method: All the synthesized molecular hybrids (6-27) were evaluated for in vitro antiplasmodial activity against the drug-sensitive strain (NF54) of P. falciparum and for cytotoxicity against the Chinese Hamster Ovary (CHO) mammalian cell line using emetine as a reference drug. Aqueous solubility was determined at pH 6.5 (Table 2). Aqueous solubility. Water solubility was analyzed using a miniaturized shake flask method. Ten millimolar stock solutions of each of the compounds were used to prepare calibration standards (10-220 μM) in DMSO. The same 10 mM stock solutions were accurately dispensed in duplicate into 96-well plates, and the DMSO, dried down ([…],90 min, 37 °C). Thereafter, the samples were reconstituted (200 μM) in an aqueous solution and shaken (20 h, 25 °C). The solutions were analyzed by means of HPLC-DAD (Agilent1200 Rapid Resolution HPLC with a diode array detector). Best fit calibration curves were constructed using the calibration standards, which were used to determine the aqueous samples' solubility.

Row | Compound | IC50 [1] [nM] | IC50 [2] [nM] | SI (selectivity index) [2] | melting point [°C] | IC50 [3] [nM] | solubility at 20 h [4] [µM]
1 | COc1ccc(/C=C/C(=O)c2ccc(S(=O)(=O)NCCCNc3ccnc4cc(Cl)ccc34)cc2)cc1 [Compound 12, (E)-N-(3-((7-chloroquinolin-4-yl)amino)propyl)-4-(3-(4-methoxyphenyl)acryloyl)benzenesulfonamide] | 110 | 43300 | 393.6 | 221 to 223 | 590 | 
2 | O=C(/C=C/c1ccccc1Br)c1ccc(S(=O)(=O)NCCCNc2ccnc3cc(Cl)ccc23)cc1 [Compound 8, (E)-4-(3-(2-bromophenyl)acryloyl)-N-(3-((7-chloroquinolin-4-yl)amino)propyl)benzenesulfonamide] | 100 | 43200 | 435 |  | 2970 | 
3 | O=C(/C=C/c1ccc(Cl)cc1)c1ccc(S(=O)(=O)NCCCNc2ccnc3cc(Cl)ccc23)cc1 [Compound 11, (E)-4-(3-(4-chlorophenyl)acryloyl)-N-(3-((7-chloroquinolin-4-yl)amino)propyl)benzenesulfonamide] | 100 | 41200 | 416.2 |  | 6000 | 
4 | O=C(/C=C/c1c(F)cccc1F)c1ccc(S(=O)(=O)NCCCNc2ccnc3cc(Cl)ccc23)cc1 [Compound 10, (E)-N-(3-((7-chloroquinolin-4-yl)amino)propyl)-4-(3-(2,6-difluorophenyl)acryloyl)benzenesulfonamide] | 540 | 27600 | 51.1 | 223 to 225 |  | < 5
5 | CC(=O)c1ccc(S(=O)(=O)NCCCNc2ccnc3cc(Cl)ccc23)cc1 [Compound 5, 4-acetyl-N-(3-((7-chloroquinolin-4-yl)amino)propyl)benzenesulfonamide] | 480 | > 50000 | >104 | 181 to 183 |  | < 5
6 | O=C(/C=C/c1ccccc1F)c1ccc(S(=O)(=O)NCCCNc2ccnc3cc(Cl)ccc23)cc1 [Compound 15, (E)-N-(3-((7-chloroquinolin-4-yl)amino)propyl)-4-(3-(2-fluorophenyl)acryloyl)benzenesulfonamide] | 860 | 45500 | 52.9 | 223 to 225 |  | 5 (≈ 2.62 µg/mL)
